Here are results for four compounds from patent US10294211B2, “Process for isolating and purifying ambrox” (Givaudan SA, priority 2015, dated 2019).

A short description of experiment [1]: Sensory analysis: GC-detection threshold and odour description. To be noted: for GC-detection threshold / odour description: sensory analysis; for odour description: in words. From the text:
(§1) Purpose: to carry out a sensory analysis of (−)-Ambrox and the compounds (II), (III) and (IV) formed in the crude material and in the crystallised material.

Experiment [2] in a line: Sensory analysis: odour threshold.
From the text: as §1

Take `CC1(C)CCC[C@@]2(C)[C@H]1CC[C@@]1(C)OCC[C@@H]21` [Compound (III)]: the “odor weaker than (−)-Ambrox” value in experiment [1] (compared with (−)-Ambrox) was “about 10 fold”. For the same compound, in experiment [1], the GC-detection threshold result is given as “circa 2 ng”. For the same compound, the odour description entry in experiment [1] (listed as Compound III) is “essentially odorless”; in experiment [1] (listed as III), “weaker odour”. The “GC-threshold relative to (−)-Ambrox” value in experiment [1] (times higher than (−)-Ambrox) is on record as “about 10 ×”.
In the case of `CC1(C)CCC[C@]2(C)[C@H]3CCO[C@]3(C)CC[C@@H]12` [(−)-Ambrox], the “Odour Threshold” value in experiment [2] (sensory analysis) was found to be 0.2 ng/L.
As to `CC1(C)CCC[C@@]2(C)[C@H]1CC[C@]1(C)OCC[C@@H]21` [Compound (IV)], in experiment [1], the GC-detection threshold fell in the range of 5 to 10 ng and the odour description result is “weak, IsoE, woody”. The odour description result in experiment [1] (listed as IV) is listed as “weaker odour”.
With `C/C1=C/CCO[C@@]2(C)CCCC(C)(C)[C@@H]2CC1` [Compound (II)], in experiment [2] (as stated in the description), the detection threshold is over 500 ng/L. For the same compound, the GC-detection threshold in experiment [1] is listed as over 500 ng. Also, the values for the odour description result in experiment [1], in experiment [1] (listed as II) and in experiment [1] (listed as compound of formula (II)) were ““odorless””, “weaker odour” and “practically odourless”, respectively.
